Test results: PMC5693244 (European journal of medicinal chemistry, 2017)

How the values were obtained:
[1] = molecular target: T1, h-FPR2 (Homo sapiens, UniProt P25090); assay: Ca2+ mobilization in FPR2-HL60 transfected cells; type: cell-based; conditions: for Agonist character (full/partial) at FPR2 / EC50, μM FPR2-HL60: Ca2+ mobilization; for EC50, μM FPR2-HL60: FPR2-HL60 cells
T1 sequence (P25090 1-351): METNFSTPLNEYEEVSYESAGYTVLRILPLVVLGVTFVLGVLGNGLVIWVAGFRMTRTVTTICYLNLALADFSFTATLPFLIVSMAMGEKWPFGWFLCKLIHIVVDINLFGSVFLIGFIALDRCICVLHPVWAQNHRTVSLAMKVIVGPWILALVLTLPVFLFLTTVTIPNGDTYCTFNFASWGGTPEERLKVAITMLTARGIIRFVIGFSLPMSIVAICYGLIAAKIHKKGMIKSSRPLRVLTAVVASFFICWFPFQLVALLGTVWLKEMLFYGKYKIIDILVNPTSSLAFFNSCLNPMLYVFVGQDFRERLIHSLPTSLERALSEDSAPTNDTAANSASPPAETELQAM

[2] = molecular target: T1, h-FPR2; conditions: previously characterized; ref [33]; cited from earlier work
[3] = system: TNF-α production in rat microglial cell cultures; assay: TNF-α ELISA in rat microglial cell cultures; type: cell-based; conditions: for Effect on LPS-evoked TNF-α production: 0.5 to 10 μM; for Effect on TNF-α production: basal conditions, agonists 0.5 μM-10 μM
[4] = system: IL-1β production in rat microglial cell cultures; assay: IL-1β ELISA in rat microglial cell cultures; type: cell-based; conditions: for Effect on LPS-evoked IL-1β production / Block by WRW4 of effect on IL-1β: LPS-stimulated; for Effect on LPS-evoked IL-1β production: 0.5 to 10 μM; for Block by WRW4 of effect on IL-1β: pre-treatment with FPR2 antagonist WRW4; for Effect on IL-1β production: basal conditions, agonists 0.5 μM-10 μM
[5] = system: NO production in rat microglial cell cultures; assay: NO release assay; type: cell-based; conditions: for Effect on LPS-increased NO level: LPS-stimulated, (S)-10 at 5 μM and 10 μM; for Effect on NO level: basal conditions
[6] = system: hCMEC/D3 cells; assay: Bidirectional transport across hCMEC/D3 cell monolayer; type: in vitro ADME, human; conditions: 100 μM, 2 h; for PappBA: basolateral-to-apical transport
[7] = system: rat primary microglial cells; assay: MTT cell viability test in rat primary microglial cell cultures; type: cell-based; conditions: for Effect on metabolic activity (MTT): 0.5–10 μM, 24 h
[8] = system: rat primary microglial cells; assay: Lactate dehydrogenase; type: cell-based; conditions: for Effect on LPS-induced cell death (LDH release): LPS-stimulated, pre-treatment 1 μM and 5 μM; for Effect on LDH release (cell death) / Effect on LDH release: basal conditions; for Effect on LDH release (cell death): 50 μM; for Effect on LDH release: 0.5–10 μM, 24 h
[9] = molecular target: T2, h-FPR1 (Homo sapiens, UniProt P21462); assay: Ca2+ mobilization in FPR1-HL60 transfected cells; type: cell-based
T2 sequence (P21462 1-350): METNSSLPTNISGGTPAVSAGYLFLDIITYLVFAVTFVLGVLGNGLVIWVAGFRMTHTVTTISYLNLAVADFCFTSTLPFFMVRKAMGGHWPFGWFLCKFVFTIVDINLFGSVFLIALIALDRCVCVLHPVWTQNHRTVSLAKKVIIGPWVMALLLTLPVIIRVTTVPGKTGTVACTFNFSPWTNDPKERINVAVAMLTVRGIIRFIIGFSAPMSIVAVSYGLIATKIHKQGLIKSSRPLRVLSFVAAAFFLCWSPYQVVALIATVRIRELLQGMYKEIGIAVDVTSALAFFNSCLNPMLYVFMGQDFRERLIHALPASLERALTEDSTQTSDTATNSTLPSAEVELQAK

[10] = Stability assays in rat liver microsomes; type: in vitro ADME; conditions: pH 7.4, Metabolic stability (% remaining), percent of parent compound remaining after 30-min incubation
[11] = system: human neutrophils; assay: Ca2+ mobilization in human neutrophils; type: cell-based

For `O=C(Nc1ccc(F)cc1)N[C@@H](Cc1c[nH]c2ccccc12)C(=O)NCC1(c2ccccc2)CC1` [(S)-8, (S)-2-[3-(4-Fluorophenyl)ureido]-3-(1H-indol-3-yl)-N-[(1-phenylcyclopropyl)methyl]propanamide], the “Agonist character (full/partial) at FPR2” value [1] was “partial agonists”.
In the case of `O=C(Nc1ccc([N+](=O)[O-])cc1)N[C@H](Cc1c[nH]c2ccccc12)C(=O)NCC1(c2ccccc2)CC1` [(R)-6], the “Interaction with FPR2 (intrinsic activity)” value [2] is given as “weak FPR2 antagonist”.
With `N#Cc1ccc(C[C@H](NC(=O)Nc2ccc([N+](=O)[O-])cc2)C(=O)NCC2(c3ccccc3)CC2)cc1` [(S)-10, (S)-3-(4-Cyanophenyl)-2-[3-(4-nitrophenyl)ureido]-N-[(1-phenylcyclopropyl)methyl]propanamide] the “Effect on LPS-evoked TNF-α production” value ([3]; LPS-stimulated) was “effectively decrease LPS-evoked cytokine production”, the “Block by WRW4 of effect on TNF-α” value ([3]; LPS-stimulated, pre-treatment with FPR2 antagonist WRW4) was “did not abolish the observed effect” and the “Effect on TNF-α production” value [3] was “did not induce any change”. For the same compound, the “Effect on LPS-evoked IL-1β production” value [4] was “effectively decrease LPS-evoked cytokine production”, the “Block by WRW4 of effect on IL-1β” value [4] was “did not abolish the observed effect” and the “Effect on IL-1β production” value [4] was “did not induce any change”. For the same compound, the “Agonist character (full/partial) at FPR2” value [1] was “full agonists”, the “Increase in agonist potency compared to (S)-6” value ([1]; FPR2, (S)-10 compared to (S)-6) was 10 fold and the “Effect on LPS-increased NO level” value [5] was “significantly attenuated”. For the same compound, the “Effect on NO level” value [5] was “did not induce any change in NO level”, the PappBA [6] was 25303.3 ×10⁻⁶ cm/s and the “Effect on metabolic activity (MTT) in LPS-stimulated cells” value [7] was “no effect was observed on metabolic activity”. For the same compound, the “Effect on conversion of MTT dye” value ([7]; basal conditions, 50 μM) was “decreased the conversion of MTT dye”, the “Effect on metabolic activity (MTT)” value ([7]; basal conditions) was “None of the compounds induced significant effects” and the “Effect on LPS-induced cell death (LDH release)” value [8] was “effectively blocked LPS-induced cell death processes”. The “Effect on LDH release (cell death)” value [8] was “significant increase in death processes” and the “Effect on LDH release” value [8] was “None of the compounds induced significant effects”.
In the case of `COc1ccc(NC(=O)N[C@@H](Cc2c[nH]c3ccccc23)C(=O)NCC2(c3ccccc3)CC2)cc1` [(S)-7, (S)-3-(1H-Indol-3-yl)-2-[3-(4-methoxyphenyl)ureido]-N-[(1-phenylcyclopropyl)methyl] propanamide], the “Agonist character (full/partial) at FPR2” value [1] is reported as “full agonist” and the “Agonist character (full/partial) at FPR1” value [9] is reported as “full agonist”.
With `O=C(Nc1ccccc1)N[C@@H](Cc1c[nH]c2ccccc12)C(=O)NCC1(c2ccccc2)CC1` [(S)-9, (S)-3-(1H-Indol-3-yl)-N-[(1-phenylcyclopropyl)methyl]-2-[3-(phenyl)ureido]propanamide] the “Agonist character (full/partial) at FPR2” value [1] was “partial agonists”.
With `O=C(Nc1ccc(F)cc1)N[C@H](Cc1c[nH]c2ccccc12)C(=O)NCC1(c2ccccc2)CC1` [(R)-8, (R)-2-[3-(4-Fluorophenyl)ureido]-3-(1H-indol-3-yl)-N-[(1-phenylcyclopropyl)methyl]propanamide] the “EC50, μM FPR2-HL60” value [1] was “not able to induce Ca^2+ mobilization” and the remaining at 0.5 h, 10 μM [10] was 4%.
For `COc1ccc(NC(=O)N[C@@H](Cc2ccc(C#N)cc2)C(=O)NCC2(c3ccc(F)c(Cl)c3)CC2)cc1` [(S)-16, (S)-N-[[1-(3-Chloro-4-fluorophenyl)cyclopropyl]methyl]-3-(4-cyanophenyl)-2-[3-(4-methoxyphenyl)ureido]propanamide], the “Agonist character (full/partial) at FPR1” value [9] was “potent FPR1 full agonists”.
For `N#Cc1ccc(C[C@@H](NC(=O)Nc2ccc([N+](=O)[O-])cc2)C(=O)NCC2(c3ccccc3)CC2)cc1` [(R)-10, (R)-3-(4-Cyanophenyl)-2-[3-(4-nitrophenyl)ureido]-N-[(1-phenylcyclopropyl)methyl]propanamide], the “Agonist character (full/partial) at FPR2” value [1] was “full agonists”.
In the case of `O=C(Nc1ccc([N+](=O)[O-])cc1)N[C@@H](Cc1cccnc1)C(=O)NCC1(c2ccccc2)CC1` [(S)-11, (S)-2-[3-(4-Nitrophenyl)ureido]-N-[(1-phenylcyclopropyl)methyl]-3-(3-pyridinyl)-propanamide], the “Agonist character (full/partial) at FPR2” value [1] is reported as “partial agonists” and the “EC50, μM FPR1-HL60” value ([9]; FPR1-HL60 cells) is reported as “low micromolar range”.
In the case of `O=C(Nc1ccc([N+](=O)[O-])cc1)N[C@H](Cc1cccnc1)C(=O)NCC1(c2ccccc2)CC1` [(R)-11, (R)-2-[3-(4-Nitrophenyl)ureido]-N-[(1-phenylcyclopropyl)methyl]-3-(3-pyridinyl)-propanamide], the “Effect on LPS-evoked TNF-α production” value ([3]; LPS-stimulated) is reported as “effectively decrease LPS-evoked cytokine production”, the “Effect on TNF-α production” value [3] is reported as “did not induce any change” and the “Effect on LPS-evoked IL-1β production” value [4] is reported as “effectively decrease LPS-evoked cytokine production”. For the same compound, the “Block by WRW4 of effect on IL-1β” value [4] was “able to block the effect”, the “Effect on IL-1β production” value [4] was “did not induce any change” and the “Agonist character (full/partial) at FPR2” value [1] was “partial agonists”. For the same compound, the “EC50, μM Neutrophils” value [11] was “submicromolar range”, the “Effect on LPS-increased NO level” value [5] was “no effect was observed” and the “Effect on NO level” value [5] was “did not induce any change in NO level”. For the same compound, the PappAB ([6]; apical-to-basolateral transport) was 11924.5 ×10⁻⁶ cm/s, the PappBA [6] was 43754.4 ×10⁻⁶ cm/s and the “Effect on metabolic activity (MTT) in LPS-stimulated cells” value [7] was “no effect was observed on metabolic activity”. For the same compound, the “Effect on metabolic activity (MTT)” value ([7]; basal conditions) was “None of the compounds induced significant effects”, the “Effect on LPS-induced cell death (LDH release)” value [8] was “effectively blocked LPS-induced cell death processes” and the “Effect on LDH release (cell death)” value [8] was “significant increase in death processes”. For the same compound, the “Effect on LDH release” value [8] was “None of the compounds induced significant effects”.
`Cc1ccc(C2(CNC(=O)[C@@H](Cc3ccc(C#N)cc3)NC(=O)Nc3ccc(F)cc3)CC2)cc1F` [(R)-15, (R)-3-(4-Cyanophenyl)-N-[[1-(3-fluoro-4-methylphenyl)cyclopropyl]methyl]-2-[3-(4-fluorophenyl)ureido]propanamide] showed a remaining at 0.5 h, 10 μM [10] greater than 20%.
`N#Cc1ccc(C[C@@H](NC(=O)Nc2ccc(F)cc2)C(=O)NCC2(c3ccc(F)c(Cl)c3)CC2)cc1` [(R)-17, (R)-3-(4-Cyanophenyl)-N-[[1-(3-chloro-4-fluorophenyl)cyclopropyl]methyl]-2-[3-(4-fluorophenyl)ureido]propanamide] showed a remaining at 0.5 h, 10 μM [10] greater than 20%.
In the case of `COc1ccc(NC(=O)N[C@H](Cc2ccc(C#N)cc2)C(=O)NCC2(c3ccc(F)c(Cl)c3)CC2)cc1` [(R)-16, (R)-N-[[1-(3-Chloro-4-fluorophenyl)cyclopropyl]methyl]-3-(4-cyanophenyl)-2-[3-(4-methoxyphenyl)ureido]propanamide], the “Agonist character (full/partial) at FPR1” value [9] is reported as “potent FPR1 full agonists”.
With `O=C(Nc1ccccc1)N[C@H](Cc1c[nH]c2ccccc12)C(=O)NCC1(c2ccccc2)CC1` [(R)-9, (R)-3-(1H-Indol-3-yl)-N-[(1-phenylcyclopropyl)methyl]-2-[3-(phenyl)ureido]propanamide] the “EC50, μM FPR2-HL60” value [1] was “not able to induce Ca^2+ mobilization”.
